Residues, ends and D or L forms follow the SMILES beside them.
Experiments:
HEK 293T cells = assay: CellTiter Blue assay; format: cell-based, human; settings: about 16 hours treatment, viability normalised to vehicle
Procedure: HEK 293T cells (ATCC CRL-3216) were grown in DMEM medium, supplemented with 10% FBS, 1 mM sodium pyruvate, non-essential amino acids. 100 μL of 10 000 cells were grown in flat-bottom 96-well plates (Fischer Scientific) overnight until cells are attached to the plate. Peptides were dissolved with Mini-plasco Nacl 0.9% (B. Braun) to 2 mg/mL and diluted to indicated concentrations using cell culture medium. Cells were treated by adding 100 μL peptides to each well for about 16 hours. Cells lysed with 1% Triton X-100 was included as a positive control. The toxicity of the peptide treatments was evaluated using the CellTiter-Blue Cell Viability Assay according to the instructions of the manufacturer (Promega, USA). The metabolic activity of viable cells is measured by recording fluorescence intensity at 590 nm after excitation at 560 nm. Cell viability is determined by normalising the fluorescence intensity of peptide- or triton-treated cells to the vehicle-treated sample.

E. coli BL21 = settings: BL21, 17 h
How it was run: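 EUCAST broth microdilution in Mueller-Hinton medium; end-exponential culture diluted to 0.005 McF (~1.5x10^6 CFU/mL) before 1:1 mixing with two-fold peptide dilutions (0.75 to 100 μg/mL), triplicates.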

## CC(C)C[C@H](NC(=O)CNC(=O)[C@H](CCCNC(=N)N)NC(=O)[C@H](CC(C)C)NC(=O)[C@H](C)NC(=O)[C@H](CCCNC(=N)N)NC(=O)[C@@H](NC(=O)[C@H](CC(C)C)NC(=O)[C@H](C)NC(=O)[C@H](CC(C)C)NC(=O)CNC(=O)[C@H](CC(C)C)NC(=O)CNC(=O)[C@@H](N)CCCNC(=N)N)C(C)C)C(=O)NCC(=O)N[C@@H](CC(C)C)C(=O)N[C@@H](C)C(=O)N[C@@H](CC(C)C)C(=O)N[C@H](C(=O)N[C@@H](C)C(=O)N[C@@H](CCCNC(=N)N)C(=O)O)C(C)C [Peptide P2_4R_L] (H-RGLGLALVRALRGLGLALVAR-OH)
HEK 293T cells
  toxicity on HEK 293T cells: induced toxicity effects

## CC(C)C[C@H](NC(=O)CNC(=O)[C@H](CCCNC(=N)N)NC(=O)[C@@H]1CCCN1C(=O)[C@H](CCCNC(=N)N)NC(=O)[C@H](CCCNC(=N)N)NC(=O)[C@@H](NC(=O)[C@H](CC(C)C)NC(=O)[C@H](C)NC(=O)[C@H](CC(C)C)NC(=O)CNC(=O)[C@H](CC(C)C)NC(=O)CNC(=O)[C@@H](NC(=O)[C@H](Cc1ccccc1)NC(=O)[C@@H](NC(=O)[C@@H](N)CCCNC(=N)N)C(C)C)C(C)C)C(C)C)C(=O)NCC(=O)N[C@@H](CC(C)C)C(=O)N[C@@H](C)C(=O)N[C@@H](CC(C)C)C(=O)N[C@H](C(=O)N[C@@H](CCCNC(=N)N)C(=O)N[C@@H](CCCNC(=N)N)C(=O)O)C(C)C [Peptide P2_VFV] (H-RVFVGLGLALVRRPRGLGLALVRR-OH)
HEK 293T cells
  toxicity on HEK 293T cells: higher toxicity at 400 μg/mL and 200 μg/mL than P2

## CC(C)C[C@H](NC(=O)CNC(=O)[C@H](CCCNC(=N)N)NC(=O)[C@@H](NC(=O)CNC(=O)[C@H](CCCNC(=N)N)NC(=O)[C@H](CCCNC(=N)N)NC(=O)[C@@H](NC(=O)[C@H](CC(C)C)NC(=O)[C@H](C)NC(=O)[C@H](CC(C)C)NC(=O)CNC(=O)[C@H](CC(C)C)NC(=O)CNC(=O)[C@@H](N)CCCNC(=N)N)C(C)C)C(C)C)C(=O)NCC(=O)N[C@@H](CC(C)C)C(=O)N[C@@H](C)C(=O)N[C@@H](CC(C)C)C(=O)N[C@H](C(=O)N[C@@H](CCCNC(=N)N)C(=O)N[C@@H](CCCNC(=N)N)C(=O)O)C(C)C [Peptide P2_GV] (H-RGLGLALVRRGVRGLGLALVRR-OH)
HEK 293T cells
  toxicity on HEK 293T cells: induced toxicity effects

## CC[C@H](C)[C@H](NC(=O)[C@H](CC(C)C)NC(=O)CNC(=O)[C@H](CC(C)C)NC(=O)CNC(=O)[C@H](CCCNC(=N)N)NC(=O)[C@@H]1CCCN1C(=O)[C@H](CCCNC(=N)N)NC(=O)[C@H](CCCNC(=N)N)NC(=O)[C@@H](NC(=O)[C@H](CC(C)C)NC(=O)[C@H](C)NC(=O)[C@H](CC(C)C)NC(=O)CNC(=O)[C@H](CC(C)C)NC(=O)CNC(=O)[C@@H](N)CCCNC(=N)N)C(C)C)C(=O)N[C@@H](CC(C)C)C(=O)N[C@H](C(=O)N[C@@H](CCCNC(=N)N)C(=O)N[C@@H](CCCNC(=N)N)C(=O)O)C(C)C [Peptide P2_A5I] (H-RGLGLALVRRPRGLGLILVRR-OH)
E. coli BL21
  BL21 MIC: 12.50 µg/mL

## CSCC[C@H](NC(=O)[C@H](C)NC(=O)[C@H](CCCNC(=N)N)NC(=O)[C@@H](NC(=O)[C@H](CC(C)C)NC(=O)[C@H](C)NC(=O)[C@H](CC(C)C)NC(=O)CNC(=O)[C@H](CC(C)C)NC(=O)CNC(=O)[C@@H](N)CCCNC(=N)N)C(C)C)C(=O)N[C@@H](CCCNC(=N)N)C(=O)NCC(=O)N[C@@H](CC(C)C)C(=O)NCC(=O)N[C@@H](CC(C)C)C(=O)N[C@@H](C)C(=O)N[C@@H](CC(C)C)C(=O)N[C@H](C(=O)N[C@@H](C)C(=O)N[C@@H](CCCNC(=N)N)C(=O)O)C(C)C [Peptide P2_4R_M] (H-RGLGLALVRAMRGLGLALVAR-OH)
E. coli BL21
  BL21 MIC: 12.50 µg/mL

## CC(C)C[C@H](NC(=O)CNC(=O)[C@H](CCCNC(=N)N)NC(=O)[C@@H]1CSSC[C@H](NC(=O)[C@@H](NC(=O)[C@H](CC(C)C)NC(=O)[C@H](C)NC(=O)[C@H](CC(C)C)NC(=O)CNC(=O)[C@H](CC(C)C)NC(=O)CNC(=O)[C@@H](N)CCCNC(=N)N)C(C)C)C(=O)N[C@@H](CCCNC(=N)N)C(=O)N[C@@H](CCCNC(=N)N)C(=O)N2CCC[C@@H]2C(=O)NCC(=O)N1)C(=O)NCC(=O)N[C@@H](CC(C)C)C(=O)N[C@@H](C)C(=O)N[C@@H](CC(C)C)C(=O)N[C@H](C(=O)N[C@@H](CCCNC(=N)N)C(=O)N[C@@H](CCCNC(=N)N)C(=O)O)C(C)C [Peptide P2_H12_pG]
E. coli BL21
  BL21 MIC, SS bond: 3.13 µg/mL
  BL21 MIC, no SS bond: 6.25 µg/mL

## CC(C)C[C@H](NC(=O)CNC(=O)[C@@H](N)CCCNC(=N)N)C(=O)NCC(=O)N[C@@H](CC(C)C)C(=O)N[C@@H](C)C(=O)N[C@@H](CC(C)C)C(=O)N[C@H](C(=O)N[C@@H](CCCNC(=N)N)C(=O)N[C@@H](CCCNC(=N)N)C(=O)N1CCC[C@H]1C(=O)N[C@@H](CCCNC(=N)N)C(=O)N[C@@H](C)C(=O)N[C@@H](CC(C)C)C(=O)NCC(=O)N[C@@H](CC(C)C)C(=O)N[C@@H](C)C(=O)N[C@@H](CC(C)C)C(=O)N[C@H](C(=O)N[C@@H](CCCNC(=N)N)C(=O)N[C@@H](CCCNC(=N)N)C(=O)O)C(C)C)C(C)C [Peptide P2_G13A] (H-RGLGLALVRRPRALGLALVRR-OH)
E. coli BL21
  BL21 MIC: 12.50 µg/mL

## CC(C)C[C@H](NC(=O)CNC(=O)[C@H](CCCNC(=N)N)NC(=O)[C@@H]1CCCN1C(=O)[C@H](CCCNC(=N)N)NC(=O)[C@H](CCCNC(=N)N)NC(=O)[C@@H](NC(=O)[C@H](CC(C)C)NC(=O)[C@H](C)NC(=O)[C@H](CC(C)C)NC(=O)CNC(=O)[C@H](CC(C)C)NC(=O)[C@H](C)NC(=O)[C@@H](N)CCCNC(=N)N)C(C)C)C(=O)NCC(=O)N[C@@H](CC(C)C)C(=O)N[C@@H](C)C(=O)N[C@@H](CC(C)C)C(=O)N[C@H](C(=O)N[C@@H](CCCNC(=N)N)C(=O)N[C@@H](CCCNC(=N)N)C(=O)O)C(C)C [Peptide P2_G2A] (H-RALGLALVRRPRGLGLALVRR-OH)
E. coli BL21
  BL21 MIC: 6.25 µg/mL

## CC(C)C[C@H](NC(=O)CNC(=O)[C@H](CCCNC(=N)N)NC(=O)[C@@H]1CCCN1C(=O)[C@H](CCCNC(=N)N)NC(=O)[C@H](CCCNC(=N)N)NC(=O)[C@@H]1CCCN1C(=O)[C@H](CC(C)C)NC(=O)[C@H](C)NC(=O)[C@H](CC(C)C)NC(=O)CNC(=O)[C@H](CC(C)C)NC(=O)CNC(=O)[C@@H](N)CCCNC(=N)N)C(=O)NCC(=O)N[C@@H](CC(C)C)C(=O)N[C@@H](C)C(=O)N[C@@H](CC(C)C)C(=O)N1CCC[C@H]1C(=O)N[C@@H](CCCNC(=N)N)C(=O)N[C@@H](CCCNC(=N)N)C(=O)O [P2_zero_tango_4] (H-RGLGLALPRRPRGLGLALPRR-OH)
E. coli BL21
  BL21 MIC: >100.00 µg/mL

## CC[C@H](C)[C@H](NC(=O)CNC(=O)[C@H](CC(C)C)NC(=O)[C@H](C)NC(=O)[C@@H]1CCCN1C(=O)[C@H](CCCNC(=N)N)NC(=O)[C@H](CCCNC(=N)N)NC(=O)[C@H](CC(C)C)NC(=O)[C@H](C)NC(=O)[C@@H](NC(=O)[C@H](C)NC(=O)[C@@H](NC(=O)CNC(=O)[C@H](CC(C)C)NC(=O)[C@@H](N)CCCNC(=N)N)[C@@H](C)CC)C(C)C)C(=O)N[C@@H](C)C(=O)N[C@H](C(=O)N[C@@H](C)C(=O)N[C@@H](CC(C)C)C(=O)N[C@@H](C)C(=O)N[C@@H](CCCNC(=N)N)C(=O)O)C(C)C [Peptide P33_4R_5] (H-RLGIAVALRRPALGIAVALAR-OH)
E. coli BL21
  BL21 MIC: 12.50 µg/mL

## CC(C)C[C@H](NC(=O)CNC(=O)[C@H](CCCNC(=N)N)NC(=O)[C@@H]1CCCN1C(=O)[C@H](CCCNC(=N)N)NC(=O)[C@H](CCCNC(=N)N)NC(=O)[C@@H](NC(=O)[C@H](CC(C)C)NC(=O)[C@H](C)NC(=O)[C@H](CC(C)C)NC(=O)CNC(=O)[C@H](CC(C)C)NC(=O)CNC(=O)[C@@H](N)CCCNC(=N)N)C(C)C)C(=O)NCC(=O)N[C@@H](CC(C)C)C(=O)N[C@@H](Cc1ccc(O)cc1)C(=O)N[C@@H](CC(C)C)C(=O)N[C@H](C(=O)N[C@@H](CCCNC(=N)N)C(=O)N[C@@H](CCCNC(=N)N)C(=O)O)C(C)C [Peptide P2_A5Y] (H-RGLGLALVRRPRGLGLYLVRR-OH)
E. coli BL21
  BL21 MIC: 6.25 µg/mL

From publication PMC10065276, “Enhanced therapeutic window for antimicrobial Pept-ins by investigating their structure-activity relationship” (PLOS ONE, 2023)
